Measured values reported in US20240131173A1, “PROTACS WITH TRANSCRIPTION FACTOR TARGETING MOIETIES” (Beth Israel Deaconess Medical Center, Inc., priority 2021, published 2024).

Legend:
[1] = target: T1, VHL E3-PROTAC-p65 ternary complex (Homo sapiens, UniProt P40337+Q04206); test: GST pulldown assay of VHL E3 ligase complex and p65 with TF-PROTAC; assay type: binding; conditions: GST-VHL complex from E. coli, HEK293T lysate with Flag-p65, in vitro
T1 construct: made in house; host or cells: E. coli BL21(DE3) for the GST-VHL/Elongin B/C complex; HEK293T lysate for Flag-p65
Excerpt: Furthermore, dNF-κB is capable of recruiting VHL E3 ubiquitin ligase to POI, NF-κB. […] However, dNF-κB obtained in current stage could not efficiently promote the degradation of p65 in cells, which prompted further optimization of the length of linker between the VHL ligand and DNA oligomer moieties for achieving efficient destruction of NF-κB in cells.
pGEX-GST-VHL/ElonginB construct was kindly gift from Dr. William Kaelin, Jr. at Dana-Farber Cancer Institute, Harvard Medical School. pGEX-GST-Elongin C plasmid was generated by subcloning Elongin C CDS into the BamHI and Xhol sites of pGEX-4T1-GST vector. The GST-VHL/ElonginB/C complex was purified as described 43. Briefly, BL21(DE3) E. coli was cotransfected with pGEX-GST-VHL/ElonginB and pGEX-GSTElonginC plasmid. Protein expression was induced by 100 μM isopropyl beta-D-thiogalactopyranoside (IPTG, Fisher Scientific) at 18° C.overnight. Then, the bacterial culture was centrifuged and sonicated in PBS buffer with protease inhibitor cocktail. Protein lysates were further purified with glutathione-Sepharose beads (GE17-0756-05) and washed with PBS for 5 times.
Glutathione-Sepharose beads loaded with GST-VHL E3 ligase complex were incubated at 4° C. with cell lysate derived from HEK293T cells that ectopic transfected with individual transfection factor. After incubation for 3 hours, TF-PROTACs were added into the mixture for another 2 hours, followed by wash with NETN buffer for 3 times. The pulldown products were further separated by 10% SDS-PAGE and blotted for indicated proteins.

HeLa cells [2] = test: Cell growth curve assay (cell number); assay type: cell-based, human; conditions: 10 ug/mL
Procedure: (§1) For cell growth curve assay, HeLa cells (10, 000/well) in 12-well plate were transfected with individual TF-PROTAC, then the cells were trypsined and the cell number were counted at indicated time. For the clonal formation assay, HeLa cells were transfected with individual TF-PROTAC for 12 hours, followed by further plated into 6-well plate (1,000/well). Three weeks later, the cells were fixed in fixation buffer (acetic acid: methanol=1:7) and stained with 0.4% crystal violet in 20% ethanol. Then clonal number were quantified by Image J software. As various changes can be made in the above-described subject matter without departing from the scope and spirit of the present disclsoure, it is intended that all subject matter contained in the above description, or defined in the appended claims, be interpreted as descriptive and illustrative. Many modifications and variations of the present disclosure are possible in light of the above teachings. Accordingly, the present description is intended to embrace all such alternatives, modifications and variances which fall within the scope of the appended claims.

HeLa cells [3] = test: Clonal (colony) formation assay; assay type: cell-based, human; conditions: HeLa cells
Procedure: as §1

p65 = p65 (Homo sapiens, UniProt Q04206); test: Western blot of p65 in HeLa cells transfected with TF-PROTAC; assay type: cell-based; design: endogenous in cells; host or cells: HeLa; conditions: 10 uM MG132
Procedure: Human embryonic kidney 293T (HEK293T) and HeLa cells were maintained in Dulbecco's Modified Eagle's Medium (DMEM) containing 10% fetal bovine serum (FBS), 100 Units/mL of penicillin and 100 μg/mL streptomycin. For ectopic expression of transcription factors, Flag-p65 and HA-E2F1 were transfected into HEK293T cells and harvested for lysis 48 hours after transfection. For TF-PROTACs treatment, HeLa cells in 12-well plate were transfected with individual TF-PROTAC for 12 hours, followed by harvest for western blot analysis. […] For depletion of endogenous VHL E3 ligase, two sgRNA for VHL E3 ligase were synthesized and inserted into lenti-CRISPR-V2 construct 40. The sgVHL lentivirus were generated in HEK293T cells as previously described 41-42 for infection of HeLa cells overnight, followed by selection with puromycin for 72 h.
Cells were lysed in EBC buffer supplemented with protease inhibitors cocktail and phosphatase inhibitors, and the protein concentrations were measured as described above. The lysates (40 ug protein) were then resolved by 10% SDS-PAGE at 130 V for 80 min and immunoblotted with indicated antibodies at 4° C. overnight, washed 4 times with Tris-buffered saline with 0.1% Tween-20 (TBST), incubated with secondary antibody for 1 hour at room temperature, and then washed 4 times with TBST buffer. […]

T1 sequence (P40337 whole entry): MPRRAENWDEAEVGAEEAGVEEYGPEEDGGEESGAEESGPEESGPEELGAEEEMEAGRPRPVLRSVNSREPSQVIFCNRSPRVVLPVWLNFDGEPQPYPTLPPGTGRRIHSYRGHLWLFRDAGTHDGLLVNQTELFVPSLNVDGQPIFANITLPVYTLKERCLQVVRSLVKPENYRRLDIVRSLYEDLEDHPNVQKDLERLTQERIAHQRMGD
T1 sequence (Q15370 whole entry partner): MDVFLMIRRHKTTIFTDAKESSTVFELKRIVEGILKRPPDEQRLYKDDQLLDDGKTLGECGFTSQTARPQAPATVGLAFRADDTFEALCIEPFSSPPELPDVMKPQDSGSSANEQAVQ
T1 sequence (Q15369 whole entry partner): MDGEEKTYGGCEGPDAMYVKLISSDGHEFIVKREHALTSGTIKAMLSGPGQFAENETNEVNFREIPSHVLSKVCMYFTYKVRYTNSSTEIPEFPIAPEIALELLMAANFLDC
T1 sequence (Q04206 whole entry): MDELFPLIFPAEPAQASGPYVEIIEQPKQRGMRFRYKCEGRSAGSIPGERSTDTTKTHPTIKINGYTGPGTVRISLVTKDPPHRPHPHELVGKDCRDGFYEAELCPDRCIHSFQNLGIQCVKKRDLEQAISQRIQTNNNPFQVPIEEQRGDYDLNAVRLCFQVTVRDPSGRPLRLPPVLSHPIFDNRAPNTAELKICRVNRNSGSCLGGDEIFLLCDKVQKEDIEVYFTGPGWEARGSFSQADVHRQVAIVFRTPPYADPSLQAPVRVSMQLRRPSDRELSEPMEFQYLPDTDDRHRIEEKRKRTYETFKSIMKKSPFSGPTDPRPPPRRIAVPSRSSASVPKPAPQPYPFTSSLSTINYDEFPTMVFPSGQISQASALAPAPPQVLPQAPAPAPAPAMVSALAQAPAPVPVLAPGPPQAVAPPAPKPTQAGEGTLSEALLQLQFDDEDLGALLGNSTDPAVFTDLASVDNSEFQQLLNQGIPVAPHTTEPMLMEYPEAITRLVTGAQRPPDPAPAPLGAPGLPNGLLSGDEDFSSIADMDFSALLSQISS
Sequence of p65 (Q04206 whole entry): as above
Sequence of p65 (P19838 1-433 limits assumed, further chain): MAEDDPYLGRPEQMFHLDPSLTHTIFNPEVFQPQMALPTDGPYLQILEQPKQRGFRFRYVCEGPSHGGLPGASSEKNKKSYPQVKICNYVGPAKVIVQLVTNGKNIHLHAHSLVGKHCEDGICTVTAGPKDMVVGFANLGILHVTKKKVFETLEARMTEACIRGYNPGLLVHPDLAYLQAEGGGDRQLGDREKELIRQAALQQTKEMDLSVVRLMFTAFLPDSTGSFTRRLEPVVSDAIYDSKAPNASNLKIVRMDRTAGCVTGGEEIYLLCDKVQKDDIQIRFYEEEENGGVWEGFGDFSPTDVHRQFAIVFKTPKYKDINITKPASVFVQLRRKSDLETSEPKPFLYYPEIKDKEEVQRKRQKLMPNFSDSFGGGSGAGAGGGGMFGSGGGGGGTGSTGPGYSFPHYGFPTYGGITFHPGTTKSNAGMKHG

Substance: dNF-κB #16 (TGGGGACTTTCCAGTTTCTGGAAAGTCCCCA; decoy; VHL ligand conjugate via PEG3 linker, further chemistry not given here)
- VHL E3 ligase-p65 binding (ternary complex) induced by PROTAC [1]: recruited the binding between the VHL E3 ubiquitin ligase and p65 in vitro
- proliferation of HeLa cells (cell number) (HeLa cells [2]): repressed the proliferation of HeLa cells
- tumorigenesis ability (colony formation) (HeLa cells [3]): inhibited
- degradation of endogenous p65 under proteasome inhibitor MG132 (p65): blocked the degradation of endogenous p65
